# Results from patent US7943318B2, “Microrna-based methods and compositions for the diagnosis, prognosis and treatment of lung cancer” (The Ohio State University Research Foundation, priority 2006, dated 2011).
# Columns and labels:
# [1] = test system: MYO18B mRNA in lung cancer cell lines (H157, A549); test: MYO18B mRNA expression after treatment with 5-aza-dC and/or TSA, RT-PCR analysis; type: cell-based, human; details: 1.0 μM, FIG. 12
# Protocol: FIG. 12 depicts the expression of MYO18B mRNA after treatment with 5-aza-dC and/or TSA in two lung cancer cell lines (H157, A549), as determined by RT-PCR analysis. Lane 1, no treatment; lane 2, treatment with 1.0 μM 5-aza-dC for 72 hr; lane 3, treatment with 1.0 μM TSA for 24 hr; lane 4, treatment with 1.0 μM 5-aza-dC for 72 hours, followed by treatment with 1.0 μM TSA for 24 hr. GAPDH expression served as a loading control.
# A549 and NCI-H157 lung cancer cells (available from the American Tissue Culture Collection) were incubated with medium containing 1.0 μM 5-aza-dC (Sigma, St. Louis, Mo.) for 48 hr, then were incubated for an additional 24 hr in the presence of 1.0 μM TSA (Sigma, St. Louis, Mo.). Total RNA was isolated with TRIzol® Reagent (Invitrogen), and microarray analysis was performed as described above. Each treatment was performed in triplicate.
# miRNA microarrays were used to analyze the expression of various miRNAs upon treatment with 5-aza-2′-deoxycytidine (5-aza-dC), a DNA methylation inhibitor, and/or Trichostatin A (TSA), a potent histone deacteylase inhibitor, in two lung cancer cell lines (A549 and NCI-H157).
# [2] = test system: miRNA expression in A549 and NCI-H157 lung cancer cells; test: miRNA microarray after treatment with 5-aza-dC and/or TSA; type: cell-based, human; details: 1.0 μM, triplicate
# Protocol: Microarray analysis was performed as previously described (Liu, C. G., et al., Proc. Natl. Acad. Sci. U.S.A. 101:9740-9744 (2004)). Briefly, 5 μg of total RNA was hybridized with miRNA microarray chips containing 352 probes in triplicate. Specifically, these chips contain gene-specific 40-mer oligonucleotide probes, spotted by contacting technologies and covalently attached to a polymeric matrix, which were generated from 161 human miRNAs, 84 mouse miRNAs, miRNAs from three other species and tRNA. The microarrays were hybridized in 6×SSPE (0.9 M NaCl/60 mM NaH2PO4.H2O/8 mM EDTA, pH 7.4)/30% formamide at 25° C. for 18 hr, washed in 0.75×TNT (Tris.HCl/NaCl/Tween 20) at 37° C. for 40 min, and processed using a method of direct detection of biotin-containing transcripts by streptavidin-Alexa647 conjugate (Molecular Probes, Carlsbad, Calif.). Processed slides were scanned using a PerkinElmer ScanArray XL5K Scanner, with the laser set to 635 nm, at Power 80 and PMT 70 setting, and a scan resolution of 10 μm. An average value of the three spot replicates for each miRNA was normalized and analyzed in BRB-ArrayTools version 3.2.3. After excluding negative values with hybridization intensity below background, normalization was performed by using a per chip on median normalization method and normalization to median array as reference. […]
SMILES,expression of MYO18B (transcriptionally-silenced gene) following treatment [1],changes in miRNA expression on microarray after treatment [2]
"Nc1ncn([C@H]2C[C@H](O)[C@@H](CO)O2)c(=O)n1 [5-aza-dC, 5-aza-2′-deoxycytidine]",increased expression,no miRNAs from the microarray displayed statistically-significant changes in expression
"CC(/C=C/C(=O)NO)=C\[C@@H](C)C(=O)c1ccc(N(C)C)cc1 [TSA, Trichostatin A]",increased expression,no miRNAs from the microarray displayed statistically-significant changes in expression
